Results on 6 molecules are retold here after ChEMBL document CHEMBL4219123, “Synthesis of new analogs of tetraiodothyroacetic acid (tetrac) as novel angiogenesis inhibitors for treatment of cancer” (Bioorg Med Chem Lett, 2018).

Structures are written as SMILES. Activity calls are given as the source filed them. No cut-off for these calls is given here.

The test concerns Mus musculus. As to the kind of experiment: Antiangiogenic activity in C57/B6 mouse injected with matrigel containing murine vascular growth factor assessed as reduction in hemoglobin content in matrigel plug at 10ug/10ull to 200 uL matrigel administered subcutaneously measured after 14 days by spectrophotometry-based Drabkin method. It counts as functional, organism-based.
In the case of `O=C(O)Cc1cc(I)c(Oc2cc(I)c(OCCN3C(=O)c4ccccc4C3=O)c(I)c2)c(I)c1`, the outcome was Active. Consider `C#CCOc1c(I)cc(Oc2c(I)cc(CC(=O)O)cc2I)cc1I`, for which the result was Active. With `O=C(O)Cc1cc(I)c(Oc2cc(I)c(OCc3cccnc3)c(I)c2)c(I)c1` the entry was “Active”; with `O=C(O)Cc1cc(I)c(Oc2cc(I)c(O)c(I)c2)c(I)c1`, “Active”. With `O=C(O)Cc1cc(I)c(Oc2cc(I)c(OCCCc3ccccc3)c(I)c2)c(I)c1`, the outcome was Active. With `O=C(O)Cc1cc(I)c(Oc2cc(I)c(OCCCN3C(=O)c4ccccc4C3=O)c(I)c2)c(I)c1` the entry was “Active”.
